Patent US7211567B1, “Composition for preventing and treating type I allergy” (Sunstar, Inc., priority 1999, dated 2007)

Key:
[1] = tested on: histamine release (CRA-1 anti human FcεRI stimulated human whole blood cells); assay: Histamine release suppression test using human whole blood; format: cell-based; conditions: for histamine release suppression rate: N=3, mean ± SD
Method: Human whole blood was collected from healthy volunteers and heparin was added thereto. A blood sample was prepared by adding 6 parts by weight of a histamine release buffer (Immunotech) to 1 part by weight of the whole blood to which the heparin had been added. 200 μl of the blood sample and 100 μl of a histamine release buffer comprising astragalin (33 μM), kaempferol (33 μM) or epinephrine (1638 μM or 4917 μM) were placed in an Eppendorf tube and allowed to stand for 30 minutes while cooling in ice (final concentration: 11 μM for astragalin, 11 μM for kaempferol, 546 μM or 1639 μM for epinephrine).
Centrifugal separation (3000 rpm, 5 minutes, 4° C.) was then carried out and the supernatant removed, and the resulting cells were again put into 300 μl of a histamine release buffer. 4.5 μl of 1 mg/ml CRA-1 (an anti human FcεRI receptor antibody, Cosmo Bio) was next added to the mixture (final CRA-1 concentration 15 μg/ml), and incubation was carried out for 30 minutes at 37° C. After centrifugation (3000 rpm, 10 minutes, 4° C.), the amount of histamine in the supernatant was measured using a histamine EIA kit (Immunotech). The histamine release suppression rate (%) was then calculated using undermentioned equation 3 from histamine amounts calculated from a calibration curve. The measurements were carried out with N=3, and the measurement values were represented by the mean and standard deviation.
[formula] A: Amount of histamine released from cells to which astragalin/kaempferol/epinephrine added (n mole) B: Amount of histamine released from untreated cells (n mole) C: Amount of histamine released from cells to which only CRA-1 added (n mole)

[2] = tested on: passive cutaneous anaphylaxis (auricula swelling); assay: Suppression of passive cutaneous anaphylaxis (PCA) in mice; format: in vivo, ddY male mice; conditions: astragalin 1.25 mg/kg oral
Method: Ten 5-week-old ddY male mice were purchased from Japan SLC, and were reared at a room temperature of 23±3° C. and a humidity of 55±15%, with a 12 hour light-dark cycle (light period 7:00 to 19:00). The mice were kept 5 to a cage, and were fed a standard diet (Labo MR Stock, Nihon Nosan Kogyo K.K.) for a 7-day preliminary period, before being divided into a group to be administered astragalin and a control group each of 5 mice. A 0.025% (w/v) solution of astragalin in distilled water was forcedly orally administered (1.25 mg/5 ml/kg) to the astragalin-administered group using a metal stomach tube, while distilled water was forcedly orally administered (5 ml/kg) to the control group. One hour after the administration, 20 μl of an anti-DNP mouse IgE antibody (10 μg/ml) was intracutaneously injected into the right auricula and 20 μl of physiological saline into the left auricula of each mouse. 24 hours after the intracutaneous injections, 100 μl of DNP-BSA (1 mg/ml) was intravenously injected into the tail of each mouse. 15 minutes later, the thicknesses of the left and right auriculae of each mouse were measured three times using a thickness gauge (Ozaki Seisakusho K.K.). The auricula swelling rate was then calculated for each group using undermentioned equation 1, and the auricula swelling suppression rate was calculated using undermentioned equation 2. The measurement values were represented by the mean and standard deviation.

[3] = tested on: atopic dermatitis in NC/Nga mice; assay: Intake test using NC/Nga mice: dermal symptoms of atopic dermatitis; format: in vivo, NC/Nga male mice; conditions: 0.0007% astragalin in diet ad libitum; end of experiment (13 weeks old); 5 mice; control 4 of 5 developed symptoms
Method: NC/Nga mice are conventional grade animals, and atopic dermatitis model mice that spontaneously develop atopic dermatitis. Moreover, the development of atopy is accompanied by a rise in serum IgE level.
(§1) Ten 4-week-old NC/Nga male mice were purchased from Japan SLC, and were reared at a room temperature of 23±3° C. and a humidity of 55±15%, with a 12 hour light-dark cycle (light period 7:00 to 19:00). The mice were kept 5 to a cage, and were fed a standard diet (Labo MR Stock, Nihon Nosan Kogyo K.K.) for a 7-day preliminary period, before being divided into a control group and a group to be administered astragalin, each of 5 mice. The mice were then allowed to eat the following diets ad libitum. Control group: A diet prepared by adding a corn starch (0.0007%, Oriental Enzyme K.K.) to MF powder (Oriental Enzyme K.K.) and then mixing in a mixer.
(§2) Astragalin-administered group: A diet prepared by adding astragalin (0.0007%) to the MF powder and then mixing in a mixer.
The following judgement criteria were used.
Slight inflammation or scratch wounds: 1
Medium degree inflammation, scratch wounds or bleeding: 2
Severe inflammation, scratch wounds or bleeding: 3
For each mouse, the judgement was carried out for each of the head, the shoulders and the back, and then the highest of the three scores was taken as the ‘maximum score’. […]

serum IgE level = assay: Intake test using NC/Nga mice: serum IgE level; format: in vivo, NC/Nga male mice; conditions: 0.0007% astragalin in diet; end of experiment (13 weeks); control 6,018 ng/ml; difference statistically significant
Method: as §1, §2
The serum IgE level was measured at the start of the experiment and then at 2-week intervals until the end of the experiment by collecting blood from the orbit and then using a mouse IgE measurement kit ‘Yamasa’ EIA (lot 702). The serum IgE level measurement values were represented by the mean and standard deviation. The differences between the two groups were tested for statistical significance using t-tests, and a significance level of 5% or less was determined significant.

[4] = tested on: IL-4 mRNA expression in human basophilic leukemia cell line (KU812); assay: Expression of IL-4 mRNA using RT-PCR in KU812 cells; format: cell-based; conditions: A23187 ionophore 1 μM
Method: A human basophilic leukemia cell line (KU812) was cultured at 37° C. with 5% CO2 in an RPMI 1640 culture medium (Gibco) containing 10% bovine fetal serum (treated at 56° C. for 30 minutes). The KU812 cells (5×10^5 cells/ml) were then stimulated using astragalin (0, 1.1, 3.3 or 11 μM) and an A23187 ionophore (1 μM). After washing, the total RNA was collected using RNAzol (Biotex, USA). 500 ng of the collected total RNA was mixed with an RT mixture (Perkin Elmer Cetus, USA), and then incubation was carried out for 5 minutes at 99° C. followed by 60 minutes at 37° C. After the RT products had been obtained, PCR amplification was carried out using an IL-4-specific primer and β-actin-specific primer. The products were subjected to migration in 2% agarose gel and stained with ethidium bromide, and then the amount of expression was evaluated.

pollinosis symptoms = assay: Pollinosis symptom scores in volunteers drinking astragalin solution; format: in vivo, human volunteers; conditions: for Impediment to daily life total point score / Nasal congestion total point score / Nasal discharge total point score / Sneezing total point score: mean of 13 volunteers
Method: Thirteen volunteers who had previously experienced pollinosis were asked to drink 240 μg of astragalin (in the form of 1 ml of concentrated persimmon leaf extract) dissolved in a suitable amount (50 to 200 ml) of water or hot water twice a day (morning and evening) starting 14 days before the start of the pollen season and ending 14 days after the start of the pollen season.
Sneezing, nasal discharge, nasal congestion and extent of impediment to daily life were evaluated using a points system both during the 7 days immediately before stopping drinking the astragalin solution (‘while drinking’ below) and during the 7 days immediately after stopping drinking the astragalin solution (‘after stopping drinking’ below).
For sneezing, 1 point was recorded for each sneeze. For nasal discharge, 1 point was recorded each time the nose was blown. […] For extent of impediment to daily life, 3 points were recorded when one could not settle down to work at all, 2 points were recorded when there was some impediment to working, 1 point was recorded when there was little impediment to working, and 0 points were recorded when there was no impediment to working; points were recorded daily.
The total point scores for the 7-day ‘while drinking’ period and the 7-day ‘after stopping drinking’ period are shown in Table 1 below as mean values over the 13 volunteers.

[5] = after stopping drinking (7 days immediately after)
[6] = while drinking (7 days before stopping), 240 μg astragalin twice a day, p 0.003

With `CNC[C@H](O)c1ccc(O)c(O)c1` [epinephrine] the “histamine release suppression rate” value ([1]; 546 μM final concentration) was 31±3% and the “histamine release suppression rate” value ([1]; 1639 μM final concentration) was 55±4%.
`O=c1c(O[C@@H]2O[C@H](CO)[C@@H](O)[C@H](O)[C@H]2O)c(-c2ccc(O)cc2)oc2cc(O)cc(O)c12` [astragalin, kaempferol-3-glucoside] was tested, and the right auricula thickness ([2]; anti-DNP IgE-injected right auricula, 15 min after DNP-BSA i.v., mean ± SD) was 0.286±0.017 mm, the “auricula swelling suppression rate” value ([2]; versus distilled water control) was 33% and the auricula swelling rate ([2]; control 27.2±12.5%) was 18.2±5.0%. For the same molecule, the left auricula thickness ([2]; saline-injected left auricula, 15 min after DNP-BSA i.v., mean ± SD) was 0.242±0.013 mm, the “histamine release suppression rate” value ([1]; 11 μM final concentration) was 50±7% and the “histamine release suppression action about the same as that of epinephrine of x times the concentration” value ([1]; astragalin 11 μM versus epinephrine 1639 μM) was roughly 150 times. The “development of atopic dermatitis symptoms” value [3] was “not one mouse had developed symptoms”, the “serum IgE level” value (serum IgE level) was 1,225 ng/ml and the IL-4 expression ([4]; astragalin 3.3 μM or 11 μM) was “particularly marked effects”. The IL-4 expression ([4]; astragalin 1.1, 3.3 or 11 μM) was “suppressed”, the “Impediment to daily life total point score” value (pollinosis symptoms; [5]) was 10 ± 10 points and the “Nasal congestion total point score” value (pollinosis symptoms; [5]) was 13 ± 11 points. For the same molecule, the “Nasal discharge total point score” value (pollinosis symptoms; [5]) was 62 ± 83 points, the “Sneezing total point score” value (pollinosis symptoms; [5]) was 68 ± 79 points and the rough skin condition (pollinosis symptoms; two of the volunteers with rough skin before treatment, while drinking the astragalin solution) was “improved”. The “Sneezing total point score” value (pollinosis symptoms; while drinking (7 days before stopping), 240 μg astragalin twice a day as concentrated persimmon leaf extract, p 0.001) was 23 ± 21 points, the “Nasal congestion total point score” value (pollinosis symptoms; [6]) was 3 ± 3 points and the “Nasal discharge total point score” value (pollinosis symptoms; [6]) was 21 ± 26 points. For the same molecule, the “Impediment to daily life total point score” value (pollinosis symptoms; while drinking (7 days before stopping), 240 μg astragalin twice a day, p 0.005) was 1 ± 2 points.
In the case of `O=c1c(O)c(-c2ccc(O)cc2)oc2cc(O)cc(O)c12` [kaempferol], the “histamine release suppression rate” value ([1]; 11 μM final concentration) is reported as 31±9%.
